In PubChem BioAssay (NCI):
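Following 48 hours of exposure in 96-well plates, responses at five concentrations were used to interpolate endpoints linearly. The concentration for 50% growth inhibition is given as GI50. TGI denotes the concentration required for complete inhibition of growth.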

Experiments:
Test in all cases: NCI anticancer screen, dose series, 48 h
[1] = test system: SK-OV-3 ovarian
[2] = test system: NCI-H226 lung
[3] = test system: K-562 leukemia
[4] = test system: OVCAR-4 ovarian
[5] = test system: M14 melanoma
[6] = test system: OVCAR-3 ovarian
[7] = test system: A498 renal
[8] = test system: MDA-MB-435
[9] = test system: T-47D breast
[10] = test system: U251 CNS
[11] = test system: RPMI-8226 leukemia
[12] = test system: SNB-19 CNS
[13] = test system: SF-539 CNS
[14] = test system: SF-268 CNS
[15] = test system: PC-3 prostate
[16] = test system: TK-10 renal
[17] = test system: NCI-H23 lung
[18] = test system: OVCAR-5 ovarian
[19] = test system: SR leukemia
[20] = test system: LOX IMVI melanoma
[21] = test system: SK-MEL-28 melanoma
[22] = test system: CCRF-CEM leukemia
[23] = test system: EKVX NSCLC
[24] = test system: MDA-MB-231 breast
[25] = test system: MCF7 breast
[26] = test system: BT-549 breast
[27] = test system: OVCAR-8 ovarian
[28] = test system: SK-MEL-2 melanoma
[29] = test system: A549 NSCLC
[30] = test system: NCI-H522 lung
[31] = test system: SK-MEL-5 melanoma
[32] = test system: SN12C renal
[33] = test system: UACC-62 melanoma
[34] = test system: HL-60(TB) leukemia
[35] = test system: SW-620 colon
[36] = test system: IGROV1 ovarian
[37] = test system: 786-0 renal
[38] = test system: SF-295 CNS
[39] = test system: DU-145 prostate
[40] = test system: NCI/ADR-RES ovarian
[41] = test system: HCT-15 colon
[42] = test system: KM12 colon
[43] = test system: MOLT-4 leukemia
[44] = test system: CAKI-1 renal
[45] = test system: UO-31 renal
[46] = test system: ACHN renal
[47] = test system: SNB-75 CNS
[48] = test system: HCC-2998 colon
[49] = test system: RXF 393 renal
[50] = test system: MALME-3M melanoma
[51] = test system: HT29 colon
[52] = test system: COLO 205 colon
[53] = test system: NCI-H460 lung
[54] = test system: HS 578T breast
[55] = test system: UACC-257 melanoma
[56] = test system: HOP-92 NSCLC
[57] = test system: HOP-62 NSCLC
[58] = test system: HCT-116 colon
[59] = test system: MDA-N

Work on `CCC(c1ccccc1)c1noc(CCN(CC)CC)n1` (stereo unspecified) yielded a GI50 [1] greater than 100 µM, a TGI [1] greater than 100 µM and a GI50 [2] of 23.8 µM. The TGI [2] was 70.9 µM, the GI50 [3] was 25.8 µM and the TGI [3] was greater than 100 µM. It also gave a GI50 [4] of 16.4 µM, a TGI [4] of 40.7 µM and a GI50 [5] of 28.8 µM. The TGI [5] was greater than 100 µM, the GI50 [6] was 25.3 µM and the TGI [6] was greater than 56.2 µM. The GI50 [7] was greater than 81.9 µM, the TGI [7] was greater than 100 µM and the GI50 [8] was 23.8 µM. For the same compound, the TGI [8] was greater than 78.8 µM, the GI50 [9] was 13.1 µM and the TGI [9] was 76.2 µM. The GI50 [10] was 29.5 µM, the TGI [10] was greater than 100 µM and the GI50 [11] was 13.2 µM. It also gave a TGI [11] greater than 100 µM, a GI50 [12] greater than 78.4 µM and a TGI [12] greater than 100 µM. The GI50 [13] was 23.2 µM, the TGI [13] was 71.1 µM and the GI50 [14] was 35.1 µM. For the same compound, the TGI [14] was greater than 100 µM, the GI50 [15] was 49.6 µM and the TGI [15] was greater than 100 µM. It also gave a GI50 [16] of 42.8 µM, a TGI [16] greater than 100 µM and a GI50 [17] of 63.3 µM. For the same compound, the TGI [17] was greater than 100 µM, the GI50 [18] was 17.1 µM and the TGI [18] was 35.6 µM. For the same compound, the GI50 [19] was 37.5 µM, the TGI [19] was greater than 100 µM and the GI50 [20] was 34.1 µM. The TGI [20] was greater than 60.3 µM, the GI50 [21] was 26.7 µM and the TGI [21] was greater than 73.2 µM. It also gave a GI50 [22] of 28.5 µM, a TGI [22] greater than 86.3 µM and a GI50 [23] greater than 47 µM. The TGI [23] was greater than 91.3 µM, the GI50 [24] was 26.4 µM and the TGI [24] was greater than 91.2 µM. The GI50 [25] was 8.98 µM, the TGI [25] was 76.2 µM and the GI50 [26] was 39.6 µM. The TGI [26] was greater than 100 µM, the GI50 [27] was 32.5 µM and the TGI [27] was greater than 100 µM. For the same compound, the GI50 [28] was 24.7 µM, the TGI [28] was 67.7 µM and the GI50 [29] was 42.1 µM. For the same compound, the TGI [29] was greater than 100 µM, the GI50 [30] was 2980 nM and the TGI [30] was 9.09 µM. It also gave a GI50 [31] of 31.1 µM, a TGI [31] greater than 100 µM and a GI50 [32] of 27.1 µM. It also gave a TGI [32] greater than 94.8 µM, a GI50 [33] of 43.2 µM and a TGI [33] greater than 100 µM. For the same compound, the GI50 [34] was 18.1 µM, the TGI [34] was 54.5 µM and the GI50 [35] was 21 µM. It also gave a TGI [35] greater than 68.1 µM, a GI50 [36] greater than 48.5 µM and a TGI [36] greater than 92.1 µM. It also gave a GI50 [37] of 34.4 µM, a TGI [37] greater than 100 µM and a GI50 [38] greater than 56.9 µM. It also gave a TGI [38] greater than 100 µM, a GI50 [39] of 22.7 µM and a TGI [39] greater than 64.3 µM. It also gave a GI50 [40] of 39.1 µM, a TGI [40] greater than 100 µM and a GI50 [41] of 19.2 µM. The TGI [41] was greater than 62.3 µM, the GI50 [42] was 22.8 µM and the TGI [42] was greater than 56.1 µM. The GI50 [43] was 40.9 µM, the TGI [43] was greater than 100 µM and the GI50 [44] was 2180 nM. The TGI [44] was 6.39 µM, the GI50 [45] was 32.2 µM and the TGI [45] was greater than 100 µM. For the same compound, the GI50 [46] was 16.1 µM, the TGI [46] was 31.3 µM and the GI50 [47] was 21.7 µM. For the same compound, the TGI [47] was greater than 100 µM, the GI50 [48] was 50.1 µM and the TGI [48] was greater than 100 µM. The GI50 [49] was 14.8 µM, the TGI [49] was 29 µM and the GI50 [50] was 30.2 µM. For the same compound, the TGI [50] was greater than 100 µM, the GI50 [51] was 27.2 µM and the TGI [51] was 81.3 µM. It also gave a GI50 [52] of 17.5 µM, a TGI [52] of 34.5 µM and a GI50 [53] greater than 52.3 µM. The TGI [53] was greater than 87.8 µM, the GI50 [54] was greater than 40.7 µM and the TGI [54] was greater than 72.8 µM. The GI50 [55] was greater than 51.2 µM, the TGI [55] was greater than 100 µM and the GI50 [56] was 7.99 µM. For the same compound, the TGI [56] was 49.6 µM, the GI50 [57] was 42.5 µM and the TGI [57] was greater than 100 µM. The GI50 [58] was 18.5 µM and the TGI [58] was 43.4 µM.
In the case of `c1ccc(COC[C@H]2O[C@@H](c3ccccc3)C[C@@H](OCc3ccccc3)C2OCc2ccccc2)cc1` (stereo partly specified), the TGI [1] was greater than 10 µM, the TGI [5] was greater than 10 µM and the TGI [9] was greater than 10 µM. It also gave a TGI [11] greater than 10 µM, a TGI [59] greater than 10 µM and a TGI [14] greater than 10 µM. For the same compound, the TGI [15] was greater than 10 µM, the TGI [16] was greater than 10 µM and the TGI [17] was greater than 10 µM. It also gave a TGI [19] greater than 10 µM, a TGI [21] greater than 10 µM and a TGI [22] greater than 10 µM. It also gave a TGI [23] greater than 10 µM, a TGI [24] greater than 10 µM and a TGI [25] greater than 10 µM. The TGI [27] was greater than 10 µM, the TGI [29] was greater than 10 µM and the TGI [31] was greater than 10 µM. For the same compound, the TGI [32] was greater than 10 µM, the TGI [33] was greater than 10 µM and the TGI [35] was greater than 10 µM. It also gave a TGI [36] greater than 10 µM, a TGI [37] greater than 10 µM and a TGI [38] greater than 10 µM. For the same compound, the TGI [39] was greater than 10 µM, the TGI [41] was greater than 10 µM and the TGI [42] was greater than 10 µM. For the same compound, the TGI [43] was greater than 10 µM, the TGI [44] was greater than 10 µM and the TGI [47] was greater than 10 µM. It also gave a TGI [48] greater than 10 µM, a TGI [49] greater than 10 µM and a TGI [50] greater than 10 µM. It also gave a TGI [52] greater than 10 µM and a TGI [57] greater than 10 µM.
